Data reported in patent US7008936B2, “Combination of epothilone analogs and chemotherapeutic agents for the treatment of proliferative diseases” (Bristol-Myers Squibb Company, priority 2002, dated 2006).

Columns and labels:
advanced cancer = test: Phase I study of Compound 1 in combination with carboplatin in patients with advanced cancer, day 1 and split day 1/8 schedules (Example 2)
Procedure: Compound 1 was assessed in Phase I studies in combination with other chemotherapeutic agents. Compound 1 was given as a 60-minute infusion, 30 minutes prior to a 30-minute carboplatin infusion on day 1 every three weeks (or 21 days). Pharmacokinetic samples were taken during the first cycle. Twenty-five (25) patients were treated on this schedule at 4 dose levels (Compound 1 doses of 30 mg/m^2 or 40 mg/m^2 with carboplatin doses of […], or AUC 5 or 6).
A further 14 patients were recruited onto an amended schedule with Compound 1 doses being split and administered on days 1 and 8 every three weeks (or 21 days) and carboplatin being administered on day 1.

[1] = test system: paclitaxel-sensitive (A2780, HCT116 and LS174T) and paclitaxel-resistant human colon tumors (HCT116/VM46), ovarian carcinoma (Pat-7 and A2780Tax) and breast …; test: Preclinical pharmacology studies, antitumor activity in tumor models; type: in vivo
[2] = Compound 1 plasma levels (pharmacokinetic samples, first cycle) in Phase I combination study; type: in vivo, human; conditions: patients, IV infusion, with carboplatin
Excerpt: Pharmacokinetic samples were taken during the first cycle.

advanced solid tumors = test: Compound 1 followed by carboplatin IV every 3 weeks in patients with advanced cancer (Example 1)
Procedure: Compound 1 followed by carboplatin was given intravenously every 3 weeks to patients with advanced solid tumors treated with ≦2 prior chemotherapy regimens. Pharmacokinetics of both drugs were measured on the first course. Twenty-five (25) patients were treated at four dose levels—combining Compound 1 (30 or 40 mg/m^2) with […] or AUC 5 or 6 (Calvert formula; Calvert et al., J. Clin. Oncol., 1989, 7, 1748–1756) of carboplatin. A total of 91 courses were given.

SMILES: C/C(=C\c1csc(C)n1)[C@@H]1C[C@@H]2O[C@]2(C)CCC[C@H](C)[C@H](O)[C@@H](C)C(=O)C(C)(C)[C@@H](O)CC(=O)N1 (relative stereo) [Compound 1, [1S-1R*,3R*(E),7R*,10S*,11R*,12R*,16S*]]-7,11-dihydroxy-8,8,10,12,16-pentamethyl-3-[1-methyl-2-(2-methyl-4-thiazolyl)ethenyl]-4-aza-17-oxabicyclo[14.1.0]heptadecane-5,9-dione]
- patients showing disease stabilization for more than two months (advanced cancer; Compound 1 + carboplatin): 48%
- major toxicities (advanced cancer; Compound 1 + carboplatin, 39 patients over 7 dose levels): myelosuppression, myalgia and peripheral neuropathy
- partial responses (advanced cancer; Compound 1 + carboplatin, 39 patients, 2 breast, neuro-endocrine, unknown primary carcinomas and mesothelioma): 5 patients
- dose at which DLT was observed, split schedule (advanced cancer; Compound 1 on days 1 and 8 every three weeks with carboplatin AUC 6 on day 1): 25 mg/m^2
- dose at which dose limiting toxicity (DLT) occurred (advanced cancer; Compound 1 day 1 every three weeks with carboplatin AUC 6, myelosuppression as major toxicity): 40 mg/m^2
- patients who withdrew from the study because of study drug toxicity (advanced cancer; peripheral neuropathy reported in all these patients, 39 patients treated): Eleven
- oral efficacy ([1]; oral administration, comparable to parenteral administration): orally efficacious
- antitumor activity ([1]; paclitaxel-sensitive and paclitaxel-resistant tumor models): very impressive and broad spectrum of antitumor activity
- half-life ([2]; human): ~30 h
- Cmax and AUC [2]: increase with dose
- volume of distribution [2]: high
- confirmed partial responses (advanced solid tumors; Compound 1 30 or 40 mg/m^2 + carboplatin AUC 5 or 6, IV every 3 weeks, 25 patients, breast, neuroendocrine and unknown primary carcinomas): 3/25
- patients with disease stabilization and clinical benefit from treatment (advanced solid tumors; Compound 1 + carboplatin every 3 weeks, 25 patients treated): 12 patients
- dose at which CTC grade 4 neutropenia was dose limiting (advanced solid tumors; human, in vivo): 40 mg/m^2
- maximum tolerated dose of Compound 1 (advanced solid tumors; with carboplatin AUC 5 (Calvert formula), every 3 weeks): 40 mg/m^2
